PMC13244789, “Cutibacterium Adaptation to Life on Humans Provides a Potential C acnes Infection Biomarker” (The Journal of investigative dermatology, 2025)

Biological target: T1, RoxP_1 (8His-TEV-RoxP_1, RoxP_1-tagless) (Cutibacterium acnes, UniProt Q6A6F6)
T1 construct: gene PPA1939; mature secreted protein; E. coli host, PelB signal peptide
Assay: native gel shift (Coomassie, TCE tryptophan protection)
Assay type: binding
Details: HSB pH 7.4; weaker than hemin

T1 sequence (Q6A6F6 entry or part of it): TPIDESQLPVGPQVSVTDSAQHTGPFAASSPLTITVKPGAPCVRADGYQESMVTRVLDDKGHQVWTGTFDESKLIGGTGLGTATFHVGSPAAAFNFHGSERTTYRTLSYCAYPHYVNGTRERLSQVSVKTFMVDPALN

`C=CC1=C(C)c2cc3[nH]c(cc4nc(cc5[nH]c(cc1n2)c(C)c5CCC(=O)O)C(CCC(=O)O)=C4C)c(C)c3C=C` [protoporphyrin IX] was tested, and the “native gel shift (Coomassie, TCE tryptophan protection)” value was “porphyrins revealed weaker binding to PPIX but no detectable binding to coproporphyrin III”.
